Measured values taken from patent US12729377B2, “RNAi agents and compositions for inhibiting expression of angiopoietin-like 3 (ANGPTL3), and methods of use” (Arrowhead Pharmaceuticals, Inc., priority 2017, dated 2026).
In the oligonucleotide strings, read from the 5' end, every base follows the letter of its sugar. An asterisk marks phosphorothioate; unmarked linkages are phosphodiester. Other units and linkages are bracketed, terminal groups are in braces. A string of capitals states the bases alone. {NAG37} = tridentate N-acetyl-galactosamine targeting ligand, structure (NAG37)s; [invAb] = inverted abasic unit; m = 2'-O-methyl; f = 2'-fluoro

How the values were obtained:
Type in all cases: in vivo, cynomolgus macaque (Macaca fascicularis)
ANGPTL3 gene [1] = test: Example 9: serum LDL in cynomolgus monkeys; conditions: 2.0 mg/kg single SC injection day 1, cynos, n=3
Protocol: (§1) Additional ANGPTL3 RNAi agents were evaluated in cynomolgus monkeys. On day 1, cynomolgus macaque (Macaca fascicularis) primates (also referred to herein as “cynos”) were administered a single subcutaneous injection of 0.3 mL/kg (approximately 2-3 mL volume, depending on animal mass) containing 2.0 mg/kg of an ANGPTL3 RNAi agent, which included either AD05488, AD05743, AD05775, or AD05841, each formulated in saline. […] ANGPTL3 RNAi agents AD05488, AD05743, and AD05775 included nucleotide sequences designed to target position 304 of the ANGPTL3 gene. ANGPTL3 RNAi agent AD05841 included nucleotide sequences designed to target position 1035 of the ANGPTL3 gene.
(§2) Three (3) cynos in each group were tested (n=3). Blood samples were drawn and serum samples were analyzed on days −14 (predose), −7 (predose), 1 (pre-dose), 8, 15, 22, 29, and 35. Cynos were fasted overnight prior to each collection. ANGPTL3 protein levels in serum were measured by ELISA assay (R&D Systems), according to the manufacturer's recommendations. Triglycerides, total cholesterol, high-density lipoprotein (HDL), and low-density lipoprotein (LDL) in serum were measured on a Cobas® Integra 400 (Roche Diagnostics), according to the manufacturer's recommendations.
(§3) The ANGPTL3 protein levels, triglyceride levels, total cholesterol levels, HDL levels, and LDL levels for each animal were normalized. For normalization, the level of ANGPTL3 protein, triglyceride, HDL, and total cholesterol, respectively, for each animal at a time point, was divided by the average pre-treatment level of expression in that animal (in this case at days −14, −7, and 1) to determine the ratio of expression “normalized to pre-treatment.”

ANGPTL3 gene [2] = test: Example 9: serum total cholesterol in cynomolgus monkeys; conditions: 2.0 mg/kg single SC injection day 1, cynos, n=3
Protocol: as §1, §2, §3

ANGPTL3 gene [3] = test: Example 9: serum HDL in cynomolgus monkeys; conditions: 2.0 mg/kg single SC injection day 1, cynos, n=3
Protocol: as §1, §2, §3

ANGPTL3 gene [4] = test: Example 9: serum triglycerides in cynomolgus monkeys; conditions: 2.0 mg/kg single SC injection day 1, cynos, n=3
Protocol: as §1, §2, §3

ANGPTL3 protein = test: Example 9: serum ANGPTL3 protein by ELISA in cynomolgus monkeys; conditions: for Average ANGPTL3 Protein Normalized to Pre-Treatment: 2.0 mg/kg single SC injection day 1, cynos, n=3
Protocol: as §1, §2, §3

Substance: AD05743: RNAi agent duplex: antisense AM07235-AS, sense AM07579-SS (antisense mU*fA*mC*fUmGfAmUfCmAfAmAfUmAfUmGfUmUfGmAfG*mC; sense {NAG37}*[invAb]*mGmCfUmCfAmAfCmAfUfAfUmUmUmGmAmUmCmAmGmUmA*[invAb])
- Average LDL Normalized to Pre-Treatment (ANGPTL3 gene [1]; Day 8): 1.055
- Average LDL Normalized to Pre-Treatment (ANGPTL3 gene [1]; Day 15): 0.825
- Average LDL Normalized to Pre-Treatment (ANGPTL3 gene [1]; Day 22): 0.986
- Average LDL Normalized to Pre-Treatment (ANGPTL3 gene [1]; Day 29): 0.941
- Average LDL Normalized to Pre-Treatment (ANGPTL3 gene [1]; Day 35): 0.911
- Average Total Cholesterol Normalized to Pre-Treatment (ANGPTL3 gene [2]; Day 8): 0.925
- Average Total Cholesterol Normalized to Pre-Treatment (ANGPTL3 gene [2]; Day 15): 0.758
- Average Total Cholesterol Normalized to Pre-Treatment (ANGPTL3 gene [2]; Day 22): 0.768
- Average Total Cholesterol Normalized to Pre-Treatment (ANGPTL3 gene [2]; Day 29): 0.807
- Average Total Cholesterol Normalized to Pre-Treatment (ANGPTL3 gene [2]; Day 35): 0.752
- Average HDL Normalized to Pre-Treatment (ANGPTL3 gene [3]; Day 8): 0.849
- Average HDL Normalized to Pre-Treatment (ANGPTL3 gene [3]; Day 15): 0.797
- Average HDL Normalized to Pre-Treatment (ANGPTL3 gene [3]; Day 22): 0.666
- Average HDL Normalized to Pre-Treatment (ANGPTL3 gene [3]; Day 29): 0.757
- Average HDL Normalized to Pre-Treatment (ANGPTL3 gene [3]; Day 35): 0.677
- Average Triglycerides Normalized to Pre-Treatment (ANGPTL3 gene [4]; Day 8): 0.646
- Average Triglycerides Normalized to Pre-Treatment (ANGPTL3 gene [4]; Day 15): 0.708
- Average Triglycerides Normalized to Pre-Treatment (ANGPTL3 gene [4]; Day 22): 0.458
- Average Triglycerides Normalized to Pre-Treatment (ANGPTL3 gene [4]; Day 29): 0.479
- Average Triglycerides Normalized to Pre-Treatment (ANGPTL3 gene [4]; Day 35): 0.521
- Average ANGPTL3 Protein Normalized to Pre-Treatment (ANGPTL3 protein; Day 8): 0.349
- Average ANGPTL3 Protein Normalized to Pre-Treatment (ANGPTL3 protein; Day 15): 0.316
- Average ANGPTL3 Protein Normalized to Pre-Treatment (ANGPTL3 protein; Day 22): 0.322
- Average ANGPTL3 Protein Normalized to Pre-Treatment (ANGPTL3 protein; Day 29): 0.381
- Average ANGPTL3 Protein Normalized to Pre-Treatment (ANGPTL3 protein; Day 35): 0.346
- reduction in ANGPTL3 protein compared to pre-treatment (ANGPTL3 protein; each of the measured time points, single 2.0 mg/kg subcutaneous, cynomolgus monkeys): reduction
